Where “and” joins values, the source holds several entries; their conditions need not be identical. Identical values can stand only once.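 Method: 48-hour compound exposure of cells in 96-well plates, five concentrations, linear interpolation of endpoints. TGI denotes the concentration required for complete inhibition of growth.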 Where a SMILES comes first, the peptide text is derived from it. The star is where a group is joined. Fmoc = O=C(OCC1c2ccccc2-c2ccccc21)*; Boc = CC(C)(C)OC(=O)*
Assays:
Assay in all cases: growth of human tumour cells (NCI), 48 h
UO-31 renal = test system: UO-31 renal
HOP-62 NSCLC = test system: HOP-62 NSCLC
DU-145 prostate = test system: DU-145 prostate
HS 578T breast = test system: HS 578T breast
NCI-H522 lung = test system: NCI-H522 lung
MDA-MB-231 breast = test system: MDA-MB-231 breast
HOP-92 NSCLC = test system: HOP-92 NSCLC
SNB-19 CNS = test system: SNB-19 CNS
SF-295 CNS = test system: SF-295 CNS
SR leukemia = test system: SR leukemia

Compound	TGI (UO-31 renal)	TGI (HOP-62 NSCLC)	TGI (DU-145 prostate) [µM]	TGI (HS 578T breast) [µM]	TGI (NCI-H522 lung)	TGI (MDA-MB-231 breast)	TGI (HOP-92 NSCLC)	TGI (SNB-19 CNS) [µM]	TGI (SF-295 CNS) [µM]	TGI (SR leukemia) [µM]
NC1=CN(Cc2ccccc2)C2=N/C(=C\c3ccco3)C(=O)N12	> 100 µM	> 100 µM	> 100	> 100	> 100 µM	> 100 µM	> 100 µM	> 100	> 100	–
CSc1nc(Cl)c2c(n1)Sc1nc3ccccc3n1N=C2	35.9 µM	> 100 µM	> 100	62.1	39.4 µM	50.9 µM	45.2 µM	> 100	> 100	–
Cc1ccc2c(c1)C/C(=C\c1ccccc1C(=O)O)C2=O	> 100 µM	> 100 µM	> 100	> 100	> 100 µM	–	> 100 µM	> 100	> 100	91.3
NCCSc1nc(N)c2ncn(C3OC(CO)C(O)C3O)c2n1 (configuration not stated)	> 100 µM	> 100 µM	–	–	> 100 µM	–	> 100 µM	> 100	> 100	> 100
C[C@]12CC[C@H]3[C@@H](CCC4=CC(=O)CC[C@@]43C)[C@@H]1CC[C@@H]2OC(=O)c1cccc2c(=O)c3ccccc3[nH]c12	> 100 µM	> 100 µM	–	> 100	> 100 µM	> 100 µM	> 100 µM	> 100	> 100	–
OCC(O)C(O)C(C=NNc1ncnc2ccc(Br)cc12)=NNc1ncnc2ccc(Br)cc12 (configuration not stated)	25.6 µM and > 100 µM	25 µM and > 100 µM	9.82	> 100	11.3 µM and 35.9 µM	31.3 µM and > 100 µM	10.4 µM and > 100 µM	> 100	> 100	–
CC(C)=C=CC(C)(C)NS(=O)(=O)NC(C)(C)C=C=C(C)C	–	> 100 µM	> 100	> 100	> 100 µM	–	> 100 µM	> 100	> 100	> 100
C#CC1(O)CC(c2ccccc2)N(C)C(c2ccccc2)C1 (configuration not stated)	> 100 µM	> 100 µM	–	–	> 100 µM	–	> 100 µM	> 100	> 100	–
Nc1ccc2c(c1)S(=O)(=O)c1cc(N)ccc1-2	> 100 µM	> 100 µM	> 100	> 100	> 100 µM	> 100 µM	> 100 µM	> 100	> 100	–
N#CCCN(CCC#N)c1ccc(/C=C2\N=C(c3ccccc3)N(c3ccccc3)C2=O)cc1	> 100 µM	> 100 µM	> 100	87.6	> 100 µM	> 100 µM	> 100 µM	> 100	> 100	–
COC(=O)C(=O)C(C(=O)C(=O)Nc1nc(=S)[nH][nH]1)c1nc2ccc([N+](=O)[O-])cc2[nH]c1=O (configuration not stated)	> 100 µM	> 100 µM	–	> 100	> 100 µM	> 100 µM	> 100 µM	> 100	> 100	–
CCCC(=O)OC1=C(c2ccccc2)Sc2ccccc2-n2cccc21	–	> 10 µM	> 10	–	–	> 10 µM	> 10 µM	–	> 10	> 10
O=C1NC(=O)C2(CCc3ccc(N(CCCl)CCCl)cc32)N1 (configuration not stated)	48 µM	35.5 µM	–	–	20.3 µM	–	39.7 µM	> 84.7	> 61.5	–
CN1C(=O)C(O)C[C@@H]1c1ccc(F)cc1 (some centres not stated)	> 100 µM	> 100 µM	> 100	–	–	> 100 µM	> 100 µM	> 100	> 100	> 100
O=c1[nH]c(Br)nc2c(N3CCCCC3)c[nH]c12	> 100 µM	> 100 µM	–	–	81.8 µM	–	> 100 µM	> 100	> 100	–
CC(C)(C)OC(=O)NCCCCC(NC(=O)C(Cc1c[nH]c2ccccc12)NC(=O)OCC1c2ccccc2-c2ccccc21)C(=O)O (configuration not stated) (Fmoc-Trp-Lys(Boc)-OH; configuration not given here)	> 100 µM	> 100 µM	> 100	96.2	–	67.9 µM	67 µM	> 100	> 100	59.3
Cc1ccc(C(=O)C(C)N)cc1C (configuration not stated)	> 100 µM	> 100 µM	–	–	> 100 µM	–	–	> 100	> 100	–
COc1ccc(/C=C2\CC3C4CC=C5C[C@@H](O)CC[C@]5(C)C4CC[C@]3(C)C2=O)cc1OC (some centres not stated)	90.3 µM	> 100 µM	> 100	> 100	57.6 µM	> 100 µM	> 100 µM	> 100	50.4	–
CCOC(=O)c1c(CN2CCOCC2)n(Cc2ccccc2)c2c1cc(O)c1nc(C)c(C)nc12	> 100 µM	51.1 µM	> 100	> 100	–	> 100 µM	–	> 100	> 100	> 100
N=c1oc2ccc(Cl)cc2cc1C(=O)NC1CCCCC1	–	> 100 µM	> 100	> 100	–	> 100 µM	> 100 µM	> 100	–	> 100
O=C(O)CCCN=C(C(=NCCCC(=O)O)c1ccccc1)c1ccccc1	> 100 µM	> 100 µM	> 100	> 100	–	> 100 µM	–	> 100	> 100	> 100
CC(C)(C)c1cc2c(O)c(c1)COCc1cc(C(C)(C)C)cc(c1O)COCc1cc(C(C)(C)C)cc(c1O)COC2	> 100 µM	> 100 µM	> 100	–	–	–	> 100 µM	> 100	> 100	> 100
O=Cc1ccc2[nH]c(=O)oc2c1	82.7 µM	> 100 µM	> 100	> 100	–	> 100 µM	–	> 100	> 100	> 100
CC(C)(C)OC(=O)CC(NC(=O)OC(C)(C)C)C(=O)Oc1ccc([N+](=O)[O-])cc1 (configuration not stated)	> 100 µM	> 100 µM	> 100	> 100	> 100 µM	> 100 µM	> 100 µM	> 100	> 100	–
